From patent US8357634B2, “N-alkoxycarboxamides and their use as microbiocides” (Syngenta Crop Protection LLC, priority 2009, dated 2013)

Assays:
[1] = system: Mycosphaerella arachidis (Cercospora arachidicola); test: Example B-2: Action against Mycosphaerella arachidis, fungal growth assay; assay type: cell-based; conditions: 0.002% active ingredient, PDB broth, 24° C., photometric after 6-7 days
Protocol: Action Against Mycosphaerella arachidis (Early Leaf Spot of Groundnut; Cercospora arachidicola [fanamorph])—Fungal Growth Assay Conidia of the fungus from cryogenic storage were directly mixed into nutrient broth (PDB potato dextrose broth). After placing a (DMSO) solution of the test compounds (0.002% active ingredient) into a microtiter plate (96-well format) the nutrient broth containing the fungal spores was added. The test plates were incubated at 24° C. and the inhibition of growth was measured photometrically after 6-7 days. The activity of a compound was expressed as fungal growth inhibition (0=no growth inhibition, ratings of 80% to 99% mean good to very good inhibition, 100%=complete inhibition).

[2] = system: Pyrenophora teres; test: Example B-8: Action against Pyrenophora teres (net blotch) on barley leaf segments; assay type: in vivo; conditions: foliar, 96 h, 0.02% active ingredient, 4 days after inoculation, read-out: preventive fungicidal activity (inhibition)
Protocol: Action Against Pyrenophora teres (Net Blotch) on Barley Barley leaf segments were placed on agar in multiwell plates (24-well format) and sprayed with test solutions (0.02% active ingredient). After drying, the leaf disks were inoculated with a spore suspension of the fungus. After appropriate incubation the activity of a compound was assessed 4 days after inoculation as preventive fungicidal activity.

[3] = system: Blumeria graminis f. sp. tritici (Erysiphe graminis f. sp. tritici); test: Example B-9: Blumeria graminis f. sp. tritici / wheat / leaf disc preventive (comparative); assay type: in vivo; conditions: 4 dpi
Protocol: Blumeria graminis f. sp. tritici (Erysiphe graminis f. sp. tritici)/Wheat/Leaf Disc Preventive (Powdery mildew on wheat) Wheat leaf segments were placed on agar in a multiwell plate (24-well format) and sprayed with test solutions. After drying, the leaf disks were inoculated with a spore suspension of the fungus. After appropriate incubation the activity of a compound was assessed 4 dpi (days after inoculation) as preventive fungicidal activity.

[4] = system: Puccinia recondita; test: Example B-10: Puccinia recondita / wheat / leaf disc preventative (comparative); assay type: in vivo; conditions: 8 dpi
Protocol: Puccinia recondita/Wheat/Leaf Disc Preventative (Brown Rust) Wheat leaf segments were placed on agar in multiwell plates (24-well format) and sprayed with test solutions. After drying, the leaf disks were inoculated with a spore suspension of the fungus. After appropriate incubation the activity of a compound was assessed 8 dpi (days after inoculation) as preventive fungicidal activity.

[5] = system: Phaeosphaeria nodorum (Septoria nodorum); test: Example B-11: Phaeosphaeria nodorum / wheat / leaf disc preventative (comparative); assay type: in vivo; conditions: 4 dpi
Protocol: (§1) Phaeosphaeria nodorum (Septoria nodorum)/Wheat/Leaf Disc Preventative (Glume Blotch) Wheat leaf segments were placed on agar in a multiwell plate (24-well format) and sprayed with test solutions. After drying, the leaf disks were inoculated with a spore suspension of the fungus. After appropriate incubation the activity of a compound was assessed 4 dpi (days after inoculation) as preventive fungicidal activity.

[6] = system: Pyrenophora teres; test: Example B-12: Pyrenophora teres / barley / leaf disc preventive (comparative); assay type: in vivo; conditions: 4 dpi
Protocol: as §1, with “Pyrenophora teres/Barley/Leaf” for “Phaeosphaeria nodorum (Septoria nodorum)/Wheat/Leaf”, “Preventive (Net” for “Preventative (Glume”, “Barley” for “Wheat”

[7] = system: Alternaria solani; test: Example B-13: Alternaria solani / tomato / leaf disc (comparative); assay type: in vivo; conditions: 4 dpi
Protocol: Alternaria solani/Tomato/Leaf Disc (Early Blight) Tomato leaf disks were placed on water agar in multiwell plates (24-well format) and sprayed with test solutions. After drying, the leaf disks were inoculated with a spore suspension of the fungus. After appropriate incubation the activity of a compound was assessed 4 dpi (days after inoculation) as preventive fungicidal activity.

[8] = system: Mycosphaerella arachidis (Cercospora arachidicola); test: Example B-15: Mycosphaerella arachidis / liquid culture (comparative); assay type: cell-based; conditions: 24° C., photometric after 6-7 days, read-out: inhibition of growth
Protocol: (§2) Mycosphaerella arachidis (Cercospora arachidicola)/Liquid Culture (Early Leaf Spot) Conidia of the fungus from cryogenic storage were directly mixed into nutrient broth (PDB potato dextrose broth). After placing a (DMSO) solution of the test compounds into a microtiter plate (96-well format) the nutrient broth containing the fungal spores was added. The test plates were incubated at 24° C. and the inhibition of growth is measured photometrically after 6-7 days.

[9] = system: Mycosphaerella praminicola (Seotoria tritici); test: Example B-16: Mycosphaerella graminicola (Septoria tritici) / liquid culture (comparative); assay type: cell-based; conditions: 96 h, 24° C., photometric after 4 days, read-out: inhibition of growth
Protocol: as §2, with “praminicola (Seotoria tritici)/Liquid” for “arachidis (Cercospora arachidicola)/Liquid”, “(Septoria Blotch)” for “(Early Leaf Spot)”, “4” for “6-7”

[10] = system: Gaeumannomyces graminis; test: Example B-17: Gaeumannomyces graminis / liquid culture (comparative); assay type: cell-based; conditions: 24 C, photometric after 2-3 days, read-out: inhibition of growth
Protocol: as §2, with “Gaeumannomyces graminis/Liquid” for “Mycosphaerella arachidis (Cercospora arachidicola)/Liquid”, “(Take-All of Cereals) Mycelial fragments” for “(Early Leaf Spot) Conidia”, “24 C” for “24° C.”, “was determined” for “is measured”, “2-3” for “6-7”

[11] = system: Monopraphella nivalis (Microdochium nivale); test: Example B-18: Monographella nivalis (Microdochium nivale) / liquid culture (comparative); assay type: cell-based; conditions: 24° C., photometric after 4-6 days, read-out: inhibition of growth
Protocol: as §2, with “Monopraphella nivalis (Microdochium nivale)/Liquid” for “Mycosphaerella arachidis (Cercospora arachidicola)/Liquid”, “(Foot Rot Cereals” for “(Early Leaf Spot)”, “4-6” for “6-7”

## CON(C(=O)c1cn(C)nc1C(F)F)C(C)c1ccc(Cl)cc1Cl (stereo not drawn) [Compound 1.023]
[1]
  inhibition at 0.002 % strength: ≥ 80%
[2]
  inhibition at 0.02 % strength: ≥ 80%
[3]; 20 ppm
  preventive fungicidal activity: 90
[3]; 60 ppm
  preventive fungicidal activity: 100
[3]; 200 ppm
  preventive fungicidal activity: 100
[4]; 20 ppm
  preventive fungicidal activity: 0
[4]; 60 ppm
  preventive fungicidal activity: 50
[4]; 200 ppm
  preventive fungicidal activity: 70
[5]; 20 ppm
  preventive fungicidal activity: 70
[5]; 60 ppm
  preventive fungicidal activity: 90
[5]; 200 ppm
  preventive fungicidal activity: 90
[6]; 20 ppm
  preventive fungicidal activity: 100
[6]; 60 ppm
  preventive fungicidal activity: 100
[6]; 200 ppm
  preventive fungicidal activity: 100
[7]; 20 ppm
  preventive fungicidal activity: 90
[7]; 60 ppm
  preventive fungicidal activity: 100
[7]; 200 ppm
  preventive fungicidal activity: 100
[8]; 6 ppm
  inhibition at 6 ppm: 100%
[8]; 20 ppm
  inhibition at 20 ppm: 100%
[8]; 60 ppm
  inhibition at 60 ppm: 100%
[9]; 6 ppm
  inhibition at 6 ppm: 100%
[9]; 20 ppm
  inhibition at 20 ppm: 100%
[9]; 60 ppm
  inhibition at 60 ppm: 100%
[10]; 6 ppm
  inhibition at 6 ppm: 0%
[10]; 20 ppm
  inhibition at 20 ppm: 0%
[10]; 60 ppm
  inhibition at 60 ppm: 50%
[11]; 6 ppm
  inhibition at 6 ppm: 0%
[11]; 20 ppm
  inhibition at 20 ppm: 0%
[11]; 60 ppm
  inhibition at 60 ppm: 50%
other
  melting point: 135 to 141 °C
